In ChEMBL document CHEMBL5126603, “Discovery of Clinical Candidate CHF-6366: A Novel Super-soft Dual Pharmacology Muscarinic Antagonist and β2 Agonist (MABA) for the Inhaled Treatment of Respiratory Diseases” (J Med Chem, 2022):

Assays:
[1] = test system: Trachea; experiment: In vivo bifunctional antagonist activity at muscarinic M3 receptor /agonist activity at beta-2 adrenoceptor in Dunkin-Hartley guinea pig trachea assessed as inhibition of carbachol induced contraction; assay type: functional, tissue-based; details: Cavia porcellus
[2] = Metabolic stability in human plasma assessed as half life at 5 uM measured upto 120 mins by LC-MS/MS analysis; assay type: ADME, cell-free
[3] = (§1) In vivo antagonist activity at muscarinic M3 receptor in Dunkin-Hartley guinea pig trachea assessed as inhibition of acetylcholine-induced bronchoconstriction at 3 nmol/Kg, IT(Intratracheal) measured after 1 hr in presence of ICI-118551 by Konzett-Roessler methodology relative to control; assay type: functional; details: Cavia porcellus
[4] = (§2) In vivo antagonist activity at muscarinic M3 receptor in Dunkin-Hartley guinea pig trachea assessed as inhibition of acetylcholine-induced bronchoconstriction at 3 nmol/Kg, IT(Intratracheal) measured after 24 hr in presence of ICI-118551 by Konzett-Roessler methodology relative to control; assay type: functional; details: Cavia porcellus
[5] = Metabolic stability in rat lung S9 fraction assessed as half life at 1 uM measured after 0 to 60 mins in presence of NADPH by LC-MS/MS analysis; assay type: ADME, subcellular; details: time 0-60 min
[6] = (§3) In vivo antagonist activity at muscarinic M3 receptor in Dunkin-Hartley guinea pig trachea assessed as inhibition of acetylcholine induced bronchoconstriction at 1 nmol/Kg, IT(Intratracheal) measured after 24 hr in presence of ICI-118551 by Konzett-Roessler methodology relative to control; assay type: functional; details: Cavia porcellus
[7] = In vivo agonist activity at beta-2 adrenoceptor in Dunkin-Hartley guinea pig trachea assessed as inhibition of histamine-induced bronchoconstriction at 3 nmol/Kg, IT(Intratracheal) measured after 24 hr by Konzett-Roessler methodology relative to control; assay type: functional; details: Cavia porcellus
[8] = test system: Trachea; experiment: as §3, with “Bifunctional” for “In vivo”, “receptor /agonist activity at beta-2 adrenoceptor” for “receptor”, “1” for “24”, “hr” for “hr in presence of ICI-118551”; assay type: functional; details: Cavia porcellus
[9] = Metabolic stability in Dunkin-Hartley guinea pig lung S9 fraction assessed as half life at 1 uM measured after 0 to 60 mins in presence of NADPH by LC-MS/MS analysis; assay type: ADME, subcellular, Cavia porcellus; details: time 0-60 min
[10] = In vivo agonist activity at beta-2 adrenoceptor in Dunkin-Hartley guinea pig trachea assessed as inhibition of histamine-induced bronchoconstriction at 3 nmol/Kg, IT(Intratracheal) measured after 1 hr by Konzett-Roessler methodology relative to control; assay type: functional; details: Cavia porcellus
[11] = Metabolic stability in rat plasma assessed as half life at 5 uM measured upto 120 mins by LC-MS/MS analysis; assay type: ADME, cell-free
[12] = In vivo agonist activity at beta-2 adrenoceptor in Dunkin-Hartley guinea pig trachea assessed as inhibition of histamine induced bronchoconstriction at 1 nmol/Kg, IT(Intratracheal) measured after 1 hr by Konzett-Roessler methodology relative to control; assay type: functional; details: Cavia porcellus
[13] = test system: Trachea; experiment: as §2, with “Bifunctional” for “In vivo”, “receptor /agonist activity at beta-2 adrenoceptor” for “receptor”, “hr” for “hr in presence of ICI-118551”; assay type: functional; details: Cavia porcellus
[14] = In vivo antagonist activity at muscarinic M3 receptor in Dunkin-Hartley guinea pig trachea assessed as inhibition of acetylcholine induced bronchoconstriction at 1 nmol/Kg, IT(Intratracheal) measured after 1 hr in presence of ICI-118551 by Konzett-Roessler methodology relative to control; assay type: functional; details: Cavia porcellus
[15] = In vivo agonist activity at beta-2 adrenoceptor in Dunkin-Hartley guinea pig trachea assessed as inhibition of histamine induced bronchoconstriction at 1 nmol/Kg, IT(Intratracheal) measured after 24 hr by Konzett-Roessler methodology relative to control; assay type: functional; details: Cavia porcellus
[16] = test system: Trachea; experiment: as §1, with “Bifunctional” for “In vivo”, “receptor /agonist activity at beta-2 adrenoceptor” for “receptor”, “hr” for “hr in presence of ICI-118551”; assay type: functional; details: Cavia porcellus
[17] = Metabolic stability in human lung S9 fraction assessed as half life at 1 uM measured after 0 to 60 mins in presence of NADPH by LC-MS/MS analysis; assay type: ADME, subcellular; details: time 0-60 min
[18] = test system: Trachea; experiment: as §3, with “Bifunctional” for “In vivo”, “receptor /agonist activity at beta-2 adrenoceptor” for “receptor”, “hr” for “hr in presence of ICI-118551”; assay type: functional; details: Cavia porcellus
[19] = test system: Trachea; experiment: In vivo bifunctional antagonist activity at muscarinic M3 receptor /agonist activity at beta-2 adrenoceptor in Dunkin-Hartley guinea pig trachea assessed as time duration for inhibition of carbachol induced contraction measured […]; assay type: functional, Cavia porcellus
[20] = Metabolic stability in Dunkin-Hartley guinea pig plasma assessed as half life at 5 uM measured upto 120 mins by LC-MS/MS analysis; assay type: ADME, cell-free, Cavia porcellus
[21] = Metabolic stability in human hepatocytes assessed as clearance at 1 uM measured per 10^6 cells and incubated upto 90 mins by LC-MS/MS analysis; assay type: ADME, cell-based, Hepatocyte; details: read-out: CLH
[22] = Metabolic stability in rat liver microsomes assessed as clearance at 1 uM measured per mg protein incubated upto 60 mins in presence of NADPH by LC-MS/MS analysis; assay type: ADME, Microsome; details: read-out: CLH
[23] = Metabolic stability in human liver microsomes assessed as clearance at 1 uM measured per mg protein incubated upto 60 mins in presence of NADPH by LC-MS/MS analysis; assay type: ADME, Microsome; details: read-out: CLH
[24] = Efflux ratio of apparent permeability from basolateral to apical side over apical to basolateral side in human Caco-2 cells at 10 uM and measured after 2 hrs by LC-MS/MS analysis; assay type: ADME, cell-based
[25] = Apparent permeability across basolateral to apical side in human Caco-2 cells at 10 uM and measured after 2 hrs by LC-MS/MS analysis; assay type: ADME, cell-based
[26] = Protein binding in Dunkin-Hartley guinea pig plasma assessed as unbound fraction at 5 uM measured after 4 hrs by LC-MS/MS analysis; assay type: ADME, cell-free, Cavia porcellus
[27] = Metabolic stability in Dunkin-Hartley guinea pig hepatocytes assessed as clearance at 1 uM measured per 10^6 cells and incubated upto 90 mins by LC-MS/MS analysis; assay type: ADME, cell-based, Cavia porcellus, Hepatocyte; details: read-out: CLH
[28] = Protein binding in rat plasma assessed as unbound fraction at 5 uM measured after 4 hrs by LC-MS/MS analysis; assay type: ADME, cell-free
[29] = Protein binding in human plasma assessed as unbound fraction at 5 uM measured after 4 hrs by LC-MS/MS analysis; assay type: ADME, cell-free
[30] = Apparent permeability across apical to basolateral side in human Caco-2 cells at 10 uM and measured after 2 hrs by LC-MS/MS analysis; assay type: ADME, cell-based
[31] = Metabolic stability in rat hepatocytes assessed as clearance at 1 uM measured per 10^6 cells and incubated upto 90 mins by LC-MS/MS analysis; assay type: ADME, cell-based, Hepatocyte; details: read-out: CLH

Compound | IC50 [1] | half-life at 5 µM [2] | inhibition in vivo at 0.003 µmol/kg [3] | inhibition in vivo at 0.003 µmol/kg [4] | half-life at 1 µM [5] | inhibition in vivo at 0.001 µmol/kg [6] | inhibition in vivo at 0.003 µmol/kg [7] | inhibition in vivo at 0.001 µmol/kg [8] | half-life at 1 µM [9] | inhibition in vivo at 0.003 µmol/kg [10] | half-life at 5 µM [11] | inhibition in vivo at 0.001 µmol/kg [12] | inhibition in vivo at 0.003 µmol/kg [13] | inhibition in vivo at 0.001 µmol/kg [14] | inhibition in vivo at 0.003 µmol/kg [16] | half-life at 1 µM [17] | inhibition in vivo at 0.001 µmol/kg [18] | Time [19] | half-life at 5 µM [20] | other results
O=C(N[C@@H](c1ccccc1)c1cccc(OCc2ccc(C(=O)OCCCCNC[C@H](O)c3ccc(O)c4[nH]c(=O)ccc34)o2)c1)O[C@H]1CN2CCC1CC2 | 0.2 nM | < 5 min | 73.7% | 43.5% | 120 min | 9.4% | 48.7% | 72% | > 120 min | 84.5% | 7 min | 67.8% | 60.6% | 64.7% | 78.3% | 32 min | 34.2% | >225 min | > 120 min | inhibition in vivo at 0.001 µmol/kg [15]: 48.9%
O=C(N[C@@H](c1ccccc1)c1cccc(OCc2nc(C(=O)OCCCCNC[C@H](O)c3ccc(O)c4[nH]c(=O)ccc34)co2)c1)O[C@H]1CN2CCC1CC2 | 0.251 nM | < 5 min | 96.1% | 37.2% | 120 min | 23.8% | 49.9% | 70% | > 120 min | 97.5% | < 5 min | 67.7% | 58.8% | 65.5% | 97.2% | 35 min | 31.9% | >270 min | 77.9 min | –
O=C(N[C@H](c1ccccc1)c1cccc(OCc2ccc(C(=O)OCCCCNC[C@H](O)c3ccc(O)c4[nH]c(=O)ccc34)cc2)c1)O[C@H]1CN2CCC1CC2 | 1.26 nM | < 5 min | – | – | – | – | – | – | – | – | < 5 min | – | – | – | – | 16.8 min | – | 180 min | 46.7 min | –
O=C(N[C@@H](c1ccccc1)c1cccc(OCc2ccc(CCNC[C@H](O)c3ccc(O)c4[nH]c(=O)ccc34)cc2)c1)O[C@H]1CN2CCC1CC2 (racemic) | – | – | 78% | 54% | 200 min | – | 35% | – | 70 min | 67% | – | – | 77% | – | 91% | 216 min | – | – | – | hepatocyte CLint at 1 µM [21]: 6 µL/min/1e6 cells; microsomal CLint at 1 µM [22]: 10 µL/min/mg; microsomal CLint at 1 µM [23]: 16 µL/min/mg; efflux ratio at 2 h, 10 µM [24]: 1.5; Papp B→A at 2 h, 10 µM [25]: 3.1 ×10⁻⁶ cm/s; Fu [26]: 99%; hepatocyte CLint at 1 µM [27]: 17 µL/min/1e6 cells; Fu [28]: 98%; Fu [29]: 98%; Papp A→B at 2 h, 10 µM [30]: 2 ×10⁻⁶ cm/s; hepatocyte CLint at 1 µM [31]: 25 µL/min/1e6 cells
O=C(N[C@@H](c1ccccc1)c1cccc(OCc2ccc(C(=O)OCCCCNC[C@H](O)c3ccc(O)c4[nH]c(=O)ccc34)cc2)c1)O[C@H]1CN2CCC1CC2 | 0.1 nM | < 5 min | – | – | – | – | – | – | – | – | < 5 min | – | – | – | – | 26.4 min | – | >225 min | 69.8 min | –
